Patent publication EP4741392A1, “1H-PYRAZOLO[4,3-C]PYRIDINE COMPOUND, AND COMPOSITION THEREOF AND USE THEREOF” (Shenzhen TargetRx Co., Ltd., priority 2023, dated 2025)
pIC50: −log10 of the molar value.

Experiments:
Test in all cases: Kinase activity inhibition assay (HTRF TK Kit), selectivity
Type in all cases: biochemical
[1] = target: T1, ITK (Homo sapiens, UniProt Q08881)
T1 construct: purchased Carna 08-181
T1 sequence (Q08881 1-620): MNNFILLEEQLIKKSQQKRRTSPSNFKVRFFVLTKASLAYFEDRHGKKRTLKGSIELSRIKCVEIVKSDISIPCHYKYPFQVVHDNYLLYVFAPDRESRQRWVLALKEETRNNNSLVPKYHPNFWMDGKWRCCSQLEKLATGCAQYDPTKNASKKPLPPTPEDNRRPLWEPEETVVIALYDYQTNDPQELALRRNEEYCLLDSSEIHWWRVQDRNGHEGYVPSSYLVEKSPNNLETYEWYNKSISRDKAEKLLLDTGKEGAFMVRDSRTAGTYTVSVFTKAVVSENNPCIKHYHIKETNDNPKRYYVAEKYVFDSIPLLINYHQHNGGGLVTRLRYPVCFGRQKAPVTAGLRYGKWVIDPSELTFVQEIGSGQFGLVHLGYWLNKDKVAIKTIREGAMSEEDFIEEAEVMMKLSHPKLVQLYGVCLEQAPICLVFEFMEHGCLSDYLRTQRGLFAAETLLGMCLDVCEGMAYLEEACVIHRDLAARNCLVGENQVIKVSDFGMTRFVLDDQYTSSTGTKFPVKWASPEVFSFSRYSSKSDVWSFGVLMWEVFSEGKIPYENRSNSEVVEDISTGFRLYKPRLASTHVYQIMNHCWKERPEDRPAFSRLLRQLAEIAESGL
Source text: (§1) In this assay, the HTRF TK Kit (Catalog No. 62TK0PEC) provided by Cisbio was used to detect the inhibitory activity of compounds on BTK kinase, BTK T474I kinase and BTK C481 S kinase and the selectivity of compounds relative to EGFR, ITK and TEC kinases.
(§2) Reagents and consumables: BTK kinase (Invitrogen, Catalog No. PV3587), BTK C481S (Carna, Product No. 08-547), BTK T474I(SignalChem Product No. B10-12HH), ITK (Cama, Product No. 08-181), EGFR (Cama, Product No. 08-115), TEC (Carna, Product No. 08-182), HTRF-TK kit (Cisbio, Product No. 62TK0PEC), MgCl2 (Sigma, Product No. M1028), MnCl2 (Sigma, Product No. M1787), DTT (Sigma, Product No. D0632), ATP (Sigma, Product No. A7699-1g), DMSO (Sigma, Product No. D2650), 384-well plate (PE, Product No. 6008280).
(§3) The entire operation steps were carried out on ice, and the total reaction volume was 10µL. A compound (4µL), substrate and ATP (4µL), and kinase (2µL) were added in sequence to a 384-well plate, and the plate was shaken for 30 seconds. The mixture was reacted at room temperature for an appropriate time, and then the detection reagent was added. The resulting mixture was reacted at room temperature for 1 hour, and then the plate was assayed with a microplate reader. The specific steps were as follows: • a) a 1 × kinase buffer solution required for the kinase assay was calculated according to the amount of the test compound, and prepared as needed; • b) 2.5 × working concentration of a compound was prepared, 100-fold gradient concentration solutions of a compound were diluted by 40 × to the desired concentration, respectively, mixed well, and added to each well at 4 µL per well; • c) 5 × working concentration of the substrate and ATP were prepared, mixed in a ratio of 1:1 before being added to the 384-well plate, and added to each well at 4 µL per well; • d) 5 × working concentration of a kinase was prepared, 2 µL of which was added to each well; • e) the plate was shaken on a microplate shaker for 30 seconds, sealed with a sealing membrane, and the mixture was reacted at room temperature for an appropriate time; • f) 4 × working concentration of streptavidin XL-665 and TK antibody-cryptate compound were prepared, mixed in a ratio of 1:1 before being added to the 384-well plate, and added to each well at 10 µL per well; • g) the mixture was reacted at room temperature for 1 hour, and then the plate was read; • h) the wells with only substrate, ATP and 1% DMSO added but no kinase were blank control wells, and the wells with only substrate, ATP, 1% DMSO and kinase were positive control wells.
(§4) Readings: The values of 620 nm (cryptate) and 665 nm (XL665) were read with a BioTek Synerg Neo2 microplate reader, the ratio of 665/620 for each well was calculated, and the data were exported.
(§5) Data analysis: IC50 was calculated using GraphPad Prism 7.0 software.
(§6) The IC50 (half-maximal inhibitory concentration) of the compound was obtained using the following nonlinear fitting formula: Y = Bottom + (Top−Bottom)/(1+10^(∧)((LogIC50−X)*HillSlope)) [formula] • X: Log value of the compound concentration • Y: Inhibition rate (% inhibition) • Top: Maximum response • Bottom: Baseline response • HillSlope: Slope of the curve
(§7) The formula for calculating kinase inhibition rate (inhibition rate %) was: [formula]

[2] = target: T2, EGFR (Homo sapiens, UniProt P00533)
T2 construct: purchased Carna 08-115
Source text: as §1, §2, §3, §4, §5, §6, §7

[3] = target: T3, TEC (Homo sapiens, UniProt P42680)
T3 construct: purchased Carna 08-182
T3 sequence (P42680 1-631): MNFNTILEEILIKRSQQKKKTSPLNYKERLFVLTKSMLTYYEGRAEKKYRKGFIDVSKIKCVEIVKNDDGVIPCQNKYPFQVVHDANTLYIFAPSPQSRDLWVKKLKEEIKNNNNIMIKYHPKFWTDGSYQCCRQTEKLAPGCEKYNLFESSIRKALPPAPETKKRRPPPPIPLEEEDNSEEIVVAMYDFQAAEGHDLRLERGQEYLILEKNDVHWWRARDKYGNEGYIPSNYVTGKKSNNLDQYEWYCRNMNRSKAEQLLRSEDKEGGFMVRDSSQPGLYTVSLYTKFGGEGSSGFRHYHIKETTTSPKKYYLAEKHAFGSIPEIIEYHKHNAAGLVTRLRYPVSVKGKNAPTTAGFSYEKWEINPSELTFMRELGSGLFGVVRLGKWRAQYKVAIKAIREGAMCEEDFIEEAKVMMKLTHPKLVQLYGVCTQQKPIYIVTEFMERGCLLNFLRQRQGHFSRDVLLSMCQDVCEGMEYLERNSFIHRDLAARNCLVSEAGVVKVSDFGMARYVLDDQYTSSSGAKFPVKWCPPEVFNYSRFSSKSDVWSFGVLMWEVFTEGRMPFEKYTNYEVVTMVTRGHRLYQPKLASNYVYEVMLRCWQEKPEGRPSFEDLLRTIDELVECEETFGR
Source text: as §1, §2, §3, §4, §5, §6, §7

T2 sequence (P00533 669-1210 limits assumed): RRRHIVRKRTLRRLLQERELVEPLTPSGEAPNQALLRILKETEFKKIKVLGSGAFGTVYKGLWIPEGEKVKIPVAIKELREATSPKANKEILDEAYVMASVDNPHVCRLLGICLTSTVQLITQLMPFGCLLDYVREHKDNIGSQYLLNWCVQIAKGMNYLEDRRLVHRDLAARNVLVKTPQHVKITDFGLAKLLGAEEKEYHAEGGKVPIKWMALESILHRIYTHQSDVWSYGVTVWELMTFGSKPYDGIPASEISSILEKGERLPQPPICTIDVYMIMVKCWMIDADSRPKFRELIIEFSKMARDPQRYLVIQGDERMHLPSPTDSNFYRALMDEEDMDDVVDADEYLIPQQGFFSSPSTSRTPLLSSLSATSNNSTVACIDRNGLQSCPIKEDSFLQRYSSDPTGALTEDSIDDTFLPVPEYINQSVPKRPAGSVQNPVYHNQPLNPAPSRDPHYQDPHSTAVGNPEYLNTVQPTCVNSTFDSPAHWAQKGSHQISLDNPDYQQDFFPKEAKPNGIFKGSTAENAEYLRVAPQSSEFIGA

| pIC50 [1] | pIC50 [2] | pIC50 [3] | SMILES |
| --- | --- | --- | --- |
| < 6.30 | 6.30 to 7.30 | 7.30 to 8.30 | COc1ccc(F)cc1C(=O)NCc1ccc(-c2ncc(-c3ccc(Cl)cn3)c3[nH]nc(N)c23)cc1 [Example 38, N-(4-(3-amino-7-(5-chloropyridin-2-yl)-1H-pyrazolo[4,3-c]pyridin-4-yl)benzyl)-5-fluoro-2-methoxybenzamide] |
| 6.30 to 7.30 | 6.30 to 7.30 | 7.30 to 8.30 | COc1ccc(F)cc1C(=O)NCc1ccc(-c2ncc(-c3ncc(C)cn3)c3[nH]nc(N)c23)cc1 [Example 39, N-(4-(3-amino-7-(5-methylpyrimidin-2-yl)-1H-pyrazolo[4,3-c]pyridin-4-yl)benzyl)-5-fluoro-2-methoxybenzamide] |
| 6.30 to 7.30 | 6.30 to 7.30 | 7.30 to 8.30 | COc1ccc(F)cc1C(=O)NCc1ccc(-c2ncc(-c3ccc(OC(F)(F)F)cn3)c3[nH]nc(N)c23)cc1 [Example 41, N-(4-(3-amino-7-(5-(trifluoromethoxy)pyridin-2-yl)-1H-pyrazolo[4,3-c]pyridin-4-yl)benzyl)-5-fluoro-2-methoxybenzamide] |
| < 6.30 | < 6.30 | 6.30 to 7.30 | COc1ccc(F)cc1C(=O)NCc1ccc(-c2ncc(-c3ncc(C(F)(F)F)cn3)c3[nH]nc(N)c23)cc1 [Example 42, N-(4-(3-amino-7-(5-(trifluoromethyl)pyrimidin-2-yl)-1H-pyrazolo[4,3-c]pyridin-4-yl)benzyl)-5-fluoro-2-methoxybenzamide] |
| 6.30 to 7.30 | 7.30 to 8.30 | 8.30 to 9.00 | COc1ccc(F)cc1C(=O)NCc1ccc(-c2ncc(-c3ccc(C4COC4)cn3)c3[nH]nc(N)c23)cc1 [Example 43, N-(4-(3-amino-7-(5-(oxetan-3-yl)pyridin-2-yl)-1H-pyrazolo[4,3-c]pyridin-4-yl)benzyl)-5-fluoro-2-methoxybenzamide] |
| 6.30 to 7.30 | 7.30 to 8.30 | 7.30 to 8.30 | COc1ccc(F)cc1C(=O)NCc1ccc(-c2ncc(-c3cc4ncccn4n3)c3[nH]nc(N)c23)cc1 [Example 44, N-(4-(3-amino-7-(pyrazolo[1,5-a]pyrimidin-2-yl)-1H-pyrazolo[4,3-c]pyridin-4-yl)benzyl)-5-fluoro-2-methoxybenzamide] |
| < 6.30 | 6.30 to 7.30 | 6.30 to 7.30 | CCOC(=O)c1cnc2cc(-c3cnc(-c4ccc(CNC(=O)c5cc(F)ccc5OC)cc4)c4c(N)n[nH]c34)nn2c1 [Example 45, ethyl 2-(3-amino-4-(4-((5-fluoro-2-methoxybenzoylamino)methyl)phenyl)-1H-pyrazolo[4,3-c]pyridin-7-yl)pyrazolo[1,5-a]pyrimidine-6-carboxylate] |
| < 6.30 | 7.30 to 8.30 | 7.30 to 8.30 | COc1ccc(F)cc1C(=O)NCc1ccc(-c2ncc(-c3ccn4nccc4n3)c3[nH]nc(N)c23)cc1 [Example 46, N-(4-(3-amino-7-(pyrazolo[1,5-a]pyrimidin-5-yl)-1H-pyrazolo[4,3-c]pyridin-4-yl)benzyl)-5-fluoro-2-methoxybenzamide] |
| < 6.30 | 6.30 to 7.30 | 7.30 to 8.30 | COc1ccc(F)cc1C(=O)NCc1ccc(-c2ncc(-c3ccc4cn[nH]c4n3)c3[nH]nc(N)c23)cc1 [Example 47, N-(4-(3-amino-7-(1H-pyrazolo[3,4-b]pyridin-6-yl)-1H-pyrazolo[4,3-c]pyridin-4-yl)benzyl)-5-fluoro-2-methoxybenzamide] |
| 6.30 to 7.30 | 6.30 to 7.30 | 7.30 to 8.30 | COc1ccc(F)cc1C(=O)NCc1ccc(-c2ncc(-c3ccc(C(F)F)cn3)c3[nH]nc(N)c23)cc1 [Example 48, N-(4-(3-amino-7-(5-(difluoromethyl)pyridin-2-yl)-1H-pyrazolo[4,3-c]pyridin-4-yl)benzyl)-5-fluoro-2-methoxybenzamide] |
| < 6.30 | 6.30 to 7.30 | 7.30 to 8.30 | COc1ccc(F)cc1C(=O)NCc1ccc(-c2ncc(-c3cn4ccnc4cn3)c3[nH]nc(N)c23)cc1 [Example 50, N-(4-(3-amino-7-(imidazo[1,2-a]pyrazin-6-yl)-1H-pyrazolo[4,3-c]pyridin-4-yl)benzyl)-5-fluoro-2-methoxybenzamide] |
| < 6.30 | 6.30 to 7.30 | 7.30 to 8.30 | COc1ccc(F)cc1C(=O)NCc1ccc(-c2ncc(-c3ccc4nccn4n3)c3[nH]nc(N)c23)cc1 [Example 51, N-(4-(3-amino-7-(imidazo[1,2-b]pyridazin-6-yl)-1H-pyrazolo[4,3-c]pyridin-4-yl)benzyl)-5-fluoro-2-methoxybenzamide] |
| 6.30 to 7.30 | 6.30 to 7.30 | 7.30 to 8.30 | COc1ccc(F)cc1C(=O)NCc1ccc(-c2ncc(-c3ccc(C(=O)N4CCOCC4)cn3)c3[nH]nc(N)c23)cc1 [Example 52, N-(4-(3-amino-7-(5-(morpholine-4-carbonyl)pyridin-2-yl)-1H-pyrazolo[4,3-c]pyridin-4-yl)benzyl)-5-fluoro-2-methoxybenzamide] |
| 6.30 to 7.30 | 6.30 to 7.30 | 7.30 to 8.30 | COc1ccc(F)cc1C(=O)NCc1ccc(-c2ncc(-c3ccc(C(=O)N4C[C@H](C)O[C@@H](C)C4)cn3)c3[nH]nc(N)c23)cc1 [Example 53, N-(4-(3-amino-7-(5-((2S,6S)-2,6-dimethylmorpholine-4-carbonyl)pyridin-2-yl)-1H-pyrazolo[4,3-c]pyridin-4-yl)benzyl)-5-fluoro-2-methoxybenzamide] |
| 6.30 to 7.30 | 6.30 to 7.30 | 7.30 to 8.30 | COc1ccc(F)cc1C(=O)NCc1ccc(-c2ncc(-c3ccc(C(=O)N4C[C@@H](C)O[C@H](C)C4)cn3)c3[nH]nc(N)c23)cc1 [Example 54, N-(4-(3-amino-7-(5-((2R,6R)-2,6-dimethylmoroholine-4-carbonyl)pyridin-2-yl)-1H-pyrazolo[4,3-c]pyridin-4-yl)benzyl)-5-fluoro-2-methoxybenzamide] |
